Measured values: patent US10329295B2, “Pyrrolotriazine inhibitors of IRAK4 activity” (MERCK SHARP & DOHME CORP., priority 2015, dated 2019)
Where a name gives a salt, the structure may show the parent alone.

Target: GST tagged IRAK4 (Homo sapiens (Human), UniProt Q9NWZ3)
Experiment: IRAK4 Kinase Assay (IMAP fluorescence polarization)
Assay type: biochemical
Conditions: 0.5 nM GST tagged IRAK4, 100 μM ATP, 30 minutes at 25° C.
In short: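 Reactions contained 0.5 nM GST-IRAK4, 100 nM fluorescent peptide substrate and 100 μM ATP in 10 mM Tris-HCl pH 7.2 with 1 mM MgCl2, and were started with ATP. After 30 minutes at 25° C they were stopped with IMAP reagent. Substrate phosphorylation was read as the change in fluorescence polarization.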

Chain of GST tagged IRAK4 (Q9NWZ3 whole entry): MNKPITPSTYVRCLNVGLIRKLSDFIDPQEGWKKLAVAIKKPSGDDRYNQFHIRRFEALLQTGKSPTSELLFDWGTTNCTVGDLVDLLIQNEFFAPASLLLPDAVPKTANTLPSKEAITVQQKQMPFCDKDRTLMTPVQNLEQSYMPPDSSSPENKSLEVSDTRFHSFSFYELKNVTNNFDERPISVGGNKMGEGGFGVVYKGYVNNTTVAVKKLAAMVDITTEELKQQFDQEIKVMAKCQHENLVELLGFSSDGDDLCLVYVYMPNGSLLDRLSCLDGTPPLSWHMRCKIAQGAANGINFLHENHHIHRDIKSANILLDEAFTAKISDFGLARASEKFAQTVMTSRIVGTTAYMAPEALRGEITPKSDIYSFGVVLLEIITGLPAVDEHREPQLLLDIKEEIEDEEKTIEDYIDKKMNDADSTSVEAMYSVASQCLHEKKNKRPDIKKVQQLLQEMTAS

Structure (SMILES) | IC50 [nM]
Cn1cc(NC(=O)c2ccc3cnc(N4C[C@@H]5CN[C@@H](C5)C4)nn23)c(C(F)(F)F)n1 (single isomer, unassigned) [Example 100, 2-[(1S,5S)- or (1R,5R)-3,6-diazabicyclo[3.2.1]oct-3-yl]-N-[1-methyl-3-(trifluoromethyl)-1H-pyrazol-4-yl]pyrrolo[2,1-f][1,2,4]triazine-7-carboxamide] | 64
Cn1cc(NC(=O)c2ccc3cnc(N[C@@H]4CCCC[C@@H]4N)nn23)cn1 [Example 169, 2-{[(1R,2S)-2-aminocyclohexyl]amino}-N-(1-methyl-1H-pyrazol-4-yl)pyrrolo[2,1-f][1,2,4]triazine-7-carboxamide trifluoroacetate] | 35
CCn1cc(NC(=O)c2ccc3cnc(N[C@@H]4CCCC[C@@H]4N)nn23)cn1 [Example 166, 2-{[(1R,2S)-2-Aminocyclohexyl]amino}-N-(1-ethyl-1H-pyrazol-4-yl)pyrrolo[2,1-f][1,2,4]triazine-7-carboxamide] | 38
N[C@@H]1[C@H](Nc2ncc3ccc(C(=O)Nc4ccsc4C(F)(F)F)n3n2)CCCC1(F)F [Example 95, 2-{[(1R,2R)-2-amino-3,3-difluorocyclohexyl]amino}-N-[2-(trifluoromethyl)thiophen-3-yl]pyrrolo[2,1-f][1,2,4]triazine-7-carboxamide trifluoroacetate] | 4700
Cn1cc(NC(=O)c2ccc3cnc(N[C@@H]4CCCC(F)(F)[C@@H]4N)nn23)c(Br)n1 [Example 89, 2-{[(1R,2R)-2-amino-3,3-difluorocyclohexyl]amino}-N-(3-bromo-1-methyl-1H-pyrazol-4-yl)pyrrolo[2,1-f][1,2,4]triazine-7-carboxamide trifluoroacetate] | 373
O=C(Nc1cscc1Br)c1ccc2cnc(N3CCCNCC3)nn12 [Example 23, N-(4-bromothiophen-3-yl)-2-(1,4-diazepan-1-yl)pyrrolo[2,1-f][1,2,4]triazine-7-carboxamide trifluoroacetate] | 1680
Cn1cc(NC(=O)c2ccc3cnc(N[C@@H]4CNC[C@@H](F)C4)nn23)c(C(F)(F)F)n1 [Example 161, 2-{[(3S,5S)-5-fluoropiperidin-3-yl]amino}-N-[1-methyl-3-(trifluoromethyl)-1H-pyrazol-4-yl]pyrrolo[2,1-f][1,2,4]triazine-7-carboxamide trifluoroacetate] | 4
O=C(Nc1ccccc1Cl)c1ccc2cnc(N3CCCNCC3)nn12 [Example 39, N-(2-chlorophenyl)-2-(1,4-diazepan-1-yl)pyrrolo[2,1-f][1,2,4]triazine-7-carboxamide trifluoroacetate] | 228
N[C@@H]1[C@H](Nc2ncc3ccc(C(=O)Nc4ccccc4Cl)n3n2)CCCC1(F)F [Example 138, 2-{[(1R,2R)-2-amino-3,3-difluorocyclohexyl]amino}-N-(2-chlorophenyl)pyrrolo[2,1-f][1,2,4]triazine-7-carboxamide trifluoroacetate] | 1640
N#Cc1ccccc1NC(=O)c1ccc2cnc(N3CCC[C@@H](N)C3)nn12 [Example 51, 2-[(3R)-3-aminopiperidin-1-yl]-N-(2-cyanophenyl)pyrrolo[2,1-f][1,2,4]triazine-7-carboxamide trifluoroacetate] | 157
N#Cc1sccc1NC(=O)c1ccc2cnc(N3CCC[C@H](N)C3)nn12 [Example 152, 2-[(3S)-3-aminopiperidin-1-yl]-N-(2-cyanothiophen-3-yl)pyrrolo[2,1-f][1,2,4]triazine-7-carboxamide trifluoroacetate] | 7
Cn1cc(NC(=O)c2ccc3cnc(N[C@H]4CNC[C@@H](F)C4)nn23)c(C(F)F)n1 [Example 159, N-[3-(difluoromethyl)-1-methyl-1H-pyrazol-4-yl]-2-{[(3R,5S)-5-fluoropiperidin-3-yl]amino}pyrrolo[2,1-f][1,2,4]triazine-7-carboxamide] | 0.5
N#Cc1ccccc1NC(=O)c1ccc2cnc(N3CCCNCC3)nn12 [Example 59, N-(2-cyanophenyl)-2-(1,4-diazepan-1-yl)pyrrolo[2,1-f][1,2,4]triazine-7-carboxamide trifluoroacetate] | 4270
N[C@H]1CCCC[C@H]1Nc1ncc2ccc(C(=O)Nc3ccsc3C(F)(F)F)n2n1 [Example 88, 2-{[(1R,2S)-2-aminocyclohexyl]amino}-N-[2-(trifluoromethyl)thiophen-3-yl]pyrrolo[2,1-f][1,2,4]triazine-7-carboxamide trifluoroacetate] | 58
N[C@H]1CCCC[C@H]1Nc1ncc2ccc(C(=O)Nc3cnn(CCO)c3)n2n1 [Example 167, 2-{[(1R,2S)-2-aminocyclohexyl]amino}-N-[1-(2-hydroxyethyl)-1H-pyrazol-4-yl]pyrrolo[2,1-f][1,2,4]triazine-7-carboxamide trifluoroacetate] | 178
Cn1cc(NC(=O)c2ccc3cnc(N4C[C@H]5CN[C@H](C5)C4)nn23)c(C(F)(F)F)n1 (single isomer, unassigned) [Example 101, 2-[(1S,5S)- or (1R,5R)-3,6-diazabicyclo[3.2.1]oct-3-yl]-N-[1-methyl-3-(trifluoromethyl)-1H-pyrazol-4-yl]pyrrolo[2,1-f][1,2,4]triazine-7-carboxamide] | 277
Cn1cc(NC(=O)c2ccc3cnc(N4C[C@H]5CC[C@@H]4CN5)nn23)c(C#N)n1 (single isomer, unassigned) [Example 47, N-(3-cyano-1-methyl-1H-pyrazol-4-yl)-2-[(1S,4S)- or (1R,4R)-2,5-diazabicyclo[2.2.2]oct-2-yl]pyrrolo[2,1-f][1,2,4]triazine-7-carboxamide trifluoroacetate] | 265
N[C@H]1CCCC[C@H]1Nc1ncc2ccc(C(=O)Nc3ccsc3Br)n2n1 [Example 38, 2-{[(1R,2S)-2-aminocyclohexyl]amino}-N-(2-bromothiophen-3-yl)pyrrolo[2,1-f][1,2,4]triazine-7-carboxamide trifluoroacetate] | 7
O=C(Nc1ccccc1C(F)(F)F)c1ccc2cnc(N3CCCNCC3)nn12 [Example 28, 2-(1,4-diazepan-1-yl)-N-[2-(trifluoromethyl)phenyl]-pyrrolo[2,1-f][1,2,4]triazine-7-carboxamide trifluoroacetate] | 3980
Cn1cc(NC(=O)c2ccc3cnc(N4CC5CCC4CN5)nn23)c(C(F)F)n1 (stereo not drawn) [Example 29, 2-(2,5-diazabicyclo[2.2.2]oct-2-yl)-N-[3-(difluoromethyl)-1-methyl-1H-pyrazol-4-yl]pyrrolo[2,1-f][1,2,4]triazine-7-carboxamide trifluoroacetate] | 7
Cn1cc(NC(=O)c2ccc3cnc(N4CCNCC4)nn23)c(C(F)(F)F)n1 [Example 4, N-[1-methyl-3-(trifluoromethyl)-1H-pyrazol-4-yl]-2-piperazin-1-ylpyrrolo[2,1-f][1,2,4]triazine-7-carboxamide trifluoroacetate] | 73
Cn1cc(NC(=O)c2ccc3cnc(N4CCNCC5(CC5)C4)nn23)c(C(F)F)n1 [Example 20, 2-(5,8-diazaspiro[2.6]non-5-yl)-N-[3-(difluoromethyl)-1-methyl-1H-pyrazol-4-yl]pyrrolo[2,1-f][1,2,4]triazine-7-carboxamide trifluoroacetate] | 2
Cn1cc(NC(=O)c2ccc3cnc(N[C@@H]4CNC[C@H](F)C4)nn23)c(C(F)F)n1 [Example 155, N-[3-(difluoromethyl)-1-methyl-1H-pyrazol-4-yl]-2-{[(3S,5R)-5-fluoropiperidin-3-yl]amino}pyrrolo[2,1-f][1,2,4]triazine-7-carboxamide] | 7
Cn1cc(NC(=O)c2ccc3cnc(N[C@H]4CNC[C@@H](F)C4)nn23)c(C(F)(F)F)n1 [Example 160, 2-{[(3R,5S)-5-fluoropiperidin-3-yl]amino}-N-[1-methyl-3-(trifluoromethyl)-1H-pyrazol-4-yl]pyrrolo[2,1-f][1,2,4]triazine-7-carboxamide] | 9
Cn1cc(NC(=O)c2ccc3cnc(N4C[C@H](N)C[C@@H](F)C4)nn23)c(C(F)(F)F)n1 [Example 149, 2-[(3R,5R)-3-amino-5-fluoropiperidin-1-yl]-N-[1-methyl-3-(trifluoromethyl)-1H-pyrazol-4-yl]pyrrolo[2,1-f][1,2,4]triazine-7-carboxamide trifluoroacetate] | 0.8
N#Cc1cscc1NC(=O)c1ccc2cnc(N[C@@H]3CCCC(F)(F)[C@@H]3N)nn12 [Example 153, 2-{[(1R,2R)-2-amino-3,3-difluorocyclohexyl]amino}-N-(4-cyanothiophen-3-yl)pyrrolo[2,1-f][1,2,4]triazine-7-carboxamide trifluoroacetate] | 120
Cn1cc(NC(=O)c2ccc3cnc(N4CCC[C@@H](N)C4)nn23)c(C(F)F)n1 [Example 18, 2-[(3R)-3-aminopiperidin-1-yl]-N-[3-(difluoromethyl)-1-methyl-1H-pyrazol-4-yl]pyrrolo[2,1-f][1,2,4]triazine-7-carboxamide trifluoroacetate] | 0.5
Cn1cc(NC(=O)c2ccc3cnc(N[C@H]4CCCCNC4)nn23)c(C(F)(F)F)n1 (single isomer, unassigned) [Example 69, 2-[(3S)- or (3R)-azepan-3-ylamino]-N-[1-methyl-3-(trifluoromethyl)-1H-pyrazol-4-yl]pyrrolo[2,1-f][1,2,4]triazine-7-carboxamide trifluoroacetate] | 5
Cn1cc(NC(=O)c2ccc3cnc(N[C@@H]4CCCC(F)(F)[C@@H]4N)nn23)c(C(F)F)n1 [Example 92, 2-{[(1R,2R)-2-amino-3,3-difluorocyclohexyl]amino}-N-[3-(difluoromethyl)-1-methyl-1H-pyrazol-4-yl]pyrrolo[2,1-f][1,2,4]triazine-7-carboxamide trifluoroacetate] | 46
N#Cc1cscc1NC(=O)c1ccc2cnc(N3CCC[C@H](N)C3)nn12 [Example 143, 2-[(3S)-3-aminopiperidin-1-yl]-N-(4-cyanothiophen-3-yl)pyrrolo[2,1-f][1,2,4]triazine-7-carboxamide trifluoroacetate] | 9
